From PMC6838048, “A Cell-Free Approach Based on Phospholipid Characterization for Determination of the Cell Specific Unbound Drug Fraction (fu,cell)” (Pharmaceutical Research, 2019)

Experiments:
Type in all cases: in vitro ADME
[1] = fu,cell by equilibrium dialysis of cell homogenate, HEK293; conditions: human, dialysis 4 h 37°C, 10 million cells/mL homogenate, read-out: fu,HEK293 Geomean
Experimental: (§1) fu,cell was measured in cassette-mode as previously described with minor modifications ([9]). Briefly, 10 million cells/mL were suspended in HBSS buffered with 10 mM HEPES and homogenized on ice by sonication (VCX 750 Sonicator, 3 mm probe, 20% intensity, 10 s). Up to 8 compounds were combined randomly and spiked into the homogenate for a final concentration of 0.5 μM. Equilibrium dialysis was performed in a Rapid Equilibirum device (Thermo Fisher Scientific) against blank HBSS buffered with 10 mM HEPES, for 4 h at 37°C on an orbital shaker at 900 rpm. Stability controls were kept at 4° and 37°C for the duration of the experiment. The concentration in both dialysis chambers was quantified by extracting the compound with acetonitrile/water (60/40) containing internal standard. Matrixes were matched with blank buffer or cell homogenate, respectively. LC-MS/MS parameters are available in Table S9. All experiments were carried out in triplicates and at least at two independent occasions.
(§2) The unbound fraction in the cell homogenate (fu,hom) was determined according to Eq. (1):1 fu,hom=Cbuffer/Chom and the fraction of unbound compound in the cell (fu,cell) was calculated by correcting for homogenate dilution according to Eq. (2):2 fu,cell=1/DP∙1/fu,hom−1+1 where the dilution constant DP was calculated using Eq. (3), assuming the Vcell to be equal to 6.5 μL/mg protein ([6],[10]). Protein content in the cell homogenates was determined at each experiment using the BCA Protein Assay Reagent Kit (Thermo Fisher Scientific Inc.).3 DP=1/Vcell

[2] = fu,cell by equilibrium dialysis of cell homogenate, HL60; conditions: human, dialysis 4 h 37°C, 10 million cells/mL homogenate, read-out: fu,HL60 Geomean
Experimental: as §1, §2

[3] = fu,cell by equilibrium dialysis of cell homogenate, Caco-2; conditions: human, Caco-2 cell homogenate, dialysis 4 h 37°C, 10 million cells/mL homogenate, read-out: fu,Caco-2 Geomean
Experimental: as §1
(§3) (3), assuming the Vcell to be equal to 6.5 μL/mg protein ([6],[10]). Protein content in the cell homogenates was determined at each experiment using the BCA Protein Assay Reagent Kit (Thermo Fisher Scientific Inc.).3 DP=1/Vcell

[4] = fu,cell by equilibrium dialysis of cell homogenate, LLC-PK1; conditions: pig, dialysis 4 h 37°C, 10 million cells/mL homogenate, read-out: fu,LLCPK1 Geomean
Experimental: as §1, §2

[5] = fu,cell by equilibrium dialysis of cell homogenate, A549; conditions: human, dialysis 4 h 37°C, 10 million cells/mL homogenate, read-out: fu,A549 Geomean
Experimental: as §1, §2

[6] = fu,cell by equilibrium dialysis of cell homogenate, K562; conditions: human, dialysis 4 h 37°C, 10 million cells/mL homogenate, read-out: fu,K562 Geomean
Experimental: as §1, §2

[7] = fu,cell by equilibrium dialysis of cell homogenate, MDCK; conditions: dog, dialysis 4 h 37°C, 10 million cells/mL homogenate, read-out: fu,MDCK Geomean
Experimental: as §1, §3

[8] = fu,cell by equilibrium dialysis of cell homogenate, primary human hepatocytes; conditions: primary human hepatocyte homogenate, dialysis 4 h 37°C, 10 million cells/mL homogenate, read-out: fu,HH Geomean
Experimental: as §1, §2

[9] = fu,PL from membrane affinity to PL-covered silica beads, PC; conditions: silica beads covered with phosphatidylcholine (PC), Transil; beads coated with pure PC, 15 min incubation; read-out: fu,PC Geomean
Experimental: (§4) f u,PL was derived from membrane affinity measurements to beads covered with PLs as previously described ([6]).
(§5) Cbuffer was quantified by LC-MS/MS in samples of the supernatant that was obtained after 15 min incubation time on an orbital shaker at 1000 rpm and subsequent separation from the beads by centrifugation at 750 x g. […] Unspecific binding was evaluated by incubations into wells without added lipids.

[10] = fu,PL from membrane affinity to PL-covered silica beads, PS; conditions: silica beads covered with phosphatidylserine (PS), Transil; beads coated with pure PS, 15 min incubation; read-out: fu,PS Geomean
Experimental: as §4, §5

[11] = fu,PL from membrane affinity to PL-covered silica beads, PE; conditions: beads coated with pure PE, 15 min incubation; read-out: fu,PE Geomean
Experimental: as §4, §5

[12] = fu,PL from membrane affinity to PL-covered silica beads, mixed beads; conditions: for fraction unbound at 15 min: mixed beads PC:PE:PS:PI 52:22:12:14 mol%, 15 min incubation, read-out: fu,mixed bead Geomean; for fu,PL (in words): examples of Fig. 3c, individual PL beads and mixed beads
Experimental: as §4, §5

Compound	fraction unbound at 4 h, 0.5 μM [1]	fraction unbound at 4 h, 0.5 μM [2]	fraction unbound at 4 h, 0.5 μM [3]	fraction unbound at 4 h, 0.5 μM [4]	fraction unbound at 4 h, 0.5 μM [5]	fraction unbound at 4 h, 0.5 μM [6]	fraction unbound at 4 h, 0.5 μM [7]	fraction unbound at 4 h, 0.5 μM [8]	fraction unbound at 15 min [9]	fraction unbound at 15 min [10]	fraction unbound at 15 min [11]	fraction unbound at 15 min [12]	fu,PL (in words) [12]
Cc1ccccc1N1C(=O)c2cc(S(N)(=O)=O)c(Cl)cc2NC1C (stereo not drawn) [Metolazone]	0.226	0.445	0.133	0.144	0.416	0.485	0.37	0.0709	0.0059	0.0093	0.0085	0.0069	
CCC(C)(C)C(=O)O[C@H]1C[C@@H](C)C=C2C=C[C@H](C)[C@H](CC[C@@H]3C[C@@H](O)CC(=O)O3)[C@H]21 [Simvastatin]	0.0015	0.0023		0.0009	0.0002	0.0032			0.001	0.0001	0.0001	0.0001	
CCN(CC)CCCC(C)Nc1ccnc2cc(Cl)ccc12 (stereo not drawn) [Chloroquine]	0.0824		0.0777	0.0783	0.0793	0.356	0.176	0.0824	0.0014	0.0006	0.0032	0.0044	
COc1ccc([C@@H]2Sc3ccccc3N(CCN(C)C)C(=O)[C@@H]2OC(C)=O)cc1 [Diltiazem]	0.0637	0.206	0.1	0.0588	0.0287	0.119	0.069	0.0445	0.0023	0.0016	0.0083	0.0034	
Cc1cccc(C)c1OCC(=O)N[C@@H](Cc1ccccc1)[C@@H](O)C[C@H](Cc1ccccc1)NC(=O)[C@H](C(C)C)N1CCCNC1=O [Lopinavir]	0.0155	0.0168	0.0122	0.0047	0.0056	0.0234	0.0119	0.0044	0.0007	0.0011	0.0026	0.0011	low
COC(=O)CCc1ccc(OCC(O)CNC(C)C)cc1 (stereo not drawn) [Esmolol]	0.196	0.676	0.566	0.566	0.922	1	0.35		0.008	0.0019	0.0126	0.0084	intermediate
Cn1c(=O)c2c(ncn2C)n(C)c1=O [Caffeine]	0.248			0.115	0.0398	0.214	0.0593	0.248	0.0096	0.0025	0.0154	0.0145	
CC(C)n1c(/C=C/C(O)CC(O)CC(=O)O)c(-c2ccc(F)cc2)c2ccccc21 (stereo not drawn) [Fluvastatin]	0.0403	0.0569	0.0245	0.0389	0.0161	0.0838	0.0338		0.001	0.0034	0.0067	0.002	
